# In patent US9464291B2, “Methods and compositions for the treatment of cancer” (University of South Alabama, priority 2012, dated 2016):
# Legend:
# [1] = system: Shh, Ihh; experiment: Shh and Ihh protein levels in A2780-CP70 cells; format: cell-based, human; conditions: cyclopamine-treated
# Procedure: SHH and IHH protein levels were assessed in cyclopamine-treated A2780-CP70 cells by Western blot analysis. Referring to FIG. 28, SHH protein (51 kDa) was detected in cytoplasmic fractions, but not nuclear fractions of treated cells at 0 hr. […] At 48 hr, SHH protein levels were prominent in cytoplasmic and nuclear fractions, and remained prominent through 72 hr. Referring to FIG. 29, IHH protein (45 kDa) was detected in cytoplasmic and nuclear fractions of treated cells at 0 hr. At 6 hr, IHH protein levels were more prominent in nuclear fractions than in cytoplasmic fractions. At 24 hr, IHH protein levels were low in both nuclear and cytoplasmic fractions. However, at 48 hr IHH protein levels increased in nuclear fractions through to 72 hr. IHH was only weakly present in the cytoplasmic fractions between 48-72 hr. […] After 24 hr SHH and IHH protein levels were similar in nuclear and cytoplasmic fractions. SHH and IHH protein levels rebounded by 48 hr and 72 hr.
# The effects of an IC50 dose of anti-Gli1 shRNA on cisplatin-sensitive A2780 cells and cisplatin-resistant A2780-CP70 cells were assessed. Cisplatin-sensitive A2780 cells and cisplatin-resisitant A2780-CP70 cells were treated with 2.0 μg/ml shRNA per 200 microliter well anti-Gli1 shRNA. Protein levels of Gli1, Gli2, c-jun, Shh, Ihh, and GAPDH (control) were measured. […]
# [2] = system: MC3T3-E1 cells; experiment: Osteoblast differentiation (ALP) and mineralization (Alizarin Red S), MC3T3-E1; format: cell-based, murine; conditions: 100 nM ligand in DM
# Procedure: The procedure for differentiation of osteoblasts was standardized. MC3T3-E1 cells were cultured in the presence of ascorbic acid and β-glycerophosphate. Mineralization was examined by Alizarin RedS staining (Ueno, A., et al. (2001). Matrix Biol 20, 347-355; Lee, Y. K., et al. (2004). J Biomed Mater Res A 69, 188-195; Duarte, W. R., et al. (2003). S100A4: a novel negative regulator of mineralization and osteoblast differentiation. J Bone Miner Res 18, 493-501). Referring to FIG. 13 and FIG. 14, differentiation was evident by intense red staining in presence of differentiation medium and in differentiation medium containing SHH compared to the control, growth medium. This was also evident in the intensity of absorbance and in the numbers of mineralized nodules formed (counted under the microscope) (FIG. 15).
# Induction of osteoblastic and osteoclastic differentiation—In order to test the effect of conditioned medium from the tumor cells on osteoblast differentiation, a double-strength differentiation medium (DM) was formulated for MC3T3 E1 Sc-14 cells. […] Osteoblast differentiation was assessed by alkaline phosphatase (ALP) activity assay in the perspective of total phosphatase. The functional assessment of osteoblast mineralization was quantified by staining with Alizarin Red S and scoring the number of mineralized nodules.
Molecule,SHH and IHH protein levels [1],osteoblast differentiation (ALP activity) [2],numbers of mineralized nodules ([2]; 14 days)
CC1=C2C[C@H]3[C@@H](CC=C4C[C@@H](O)CC[C@@]43C)[C@@H]2CC[C@]12O[C@@H]1C[C@H](C)CN[C@H]1[C@H]2C [cyclopamine],reduced at 24 hr,,
SHH: recombinant Sonic hedgehog ligand (R & D Systems),,stimulated differentiation,significant increase (p<0.05)
